Test results published in patent publication US5603943A, “Nasally administrable compositions” (Dott Research Laboratory, priority 1994, dated 1997).
Where “and” joins values, the source holds several entries; their conditions need not be identical. Identical values can stand only once.

Key:
[1] = Salmon calcitonin blood concentration, nasal powder with hydroxyapatite (Test Example 2); format: in vivo, healthy male adults (human); conditions: for Concentration of salmon calcitonin in the blood: nasal 200 MRC (IU)/25 mg, individual cases No. 1-3 in order
Experimental: (§1) A nasally administrable composition in powdery form was prepared by formulating salmon calcitonin as a physiologically active peptide at the rate of 200 MRC (IU) per 25 mg with hydroxyapatite as a carrier having a mean particle size ranging from 40 to 45 μm.
(§2) The resulting composition was nasally administered once at a dose of 25 mg to three healthy male adults and the blood (2.5 ml) was collected from each of the tested adults prior to administration and then at 5, 10, 15, 20, 30, 45, 60, 90, 120 and 180 minutes after administration. The concentration of the salmon calcitonin in each of the collected blood samples was assayed with a standard RIA assay kit.

[2] = Salmon calcitonin blood concentration, nasal powder with hydroxyapatite (Test Example 3); format: in vivo, healthy male adults (human); conditions: for Concentration of salmon calcitonin in the blood: nasal 200 MRC (IU)/25 mg, individual cases No. 4-7 in order
Experimental: as §1
The resulting composition was nasally administered once at a dose of 25 mg to four healthy male adults and the blood (2.5 ml) was collected from each of the tested adults prior to administration and then at 5, 10, 15, 20, 30, 45, 60, 90, 120 and 180 minutes after administration. The concentration of the salmon calcitonin in each of the collected blood samples was assayed with a standard RIA assay kit.

[3] = Salmon calcitonin blood concentration, nasal powder with magnesium stearate (Test Example 4); format: in vivo, healthy male adults (human)
Experimental: A nasally administrable composition in powdery form was prepared by formulating salmon calcitonin as a physiologically active peptide at the rate of 200 MRC (IU) per 25 mg with magnesium stearate as a carrier having a mean particle size ranging from 40 to 45 μm.
The resulting composition was nasally administered once at a dose of 25 mg to three healthy male adults and the blood (2.5 ml) was collected from each of the tested adults prior to administration and then at 5, 10, 15, 20, 30, 45, 60, 90, 120 and 180 minutes after administration. The concentration of the salmon calcitonin in each -of the collected blood samples was assayed with a standard RIA assay kit.

[4] = Salmon calcitonin blood concentration, nasal powder with calcium carbonate (Test Example 5); format: in vivo, healthy male adults (human)
Experimental: A nasally administrable composition in powdery form was prepared by formulating salmon calcitonin as a physiologically active peptide at the rate of 200 MRC (IU) per 25 mg with calcium carbonate as a carrier having a mean particle size ranging from 40 to 45 μm.
as §2

[5] = Salmon calcitonin blood concentration, nasal powder with aluminum hydroxide (Test Example 6); format: in vivo, healthy male adults (human); conditions: for Concentration of salmon calcitonin in the blood: nasal 200 MRC (IU)/25 mg, individual cases No. 14-16 in order
Experimental: A nasally administrable composition in powdery form was prepared by formulating salmon calcitonin as a physiologically active peptide at the rate of 200 MRC (IU) per 25 mg with aluminum hydroxide as a carrier having a mean particle size ranging from 40 to 45 μm.
as §2

[6] = Nasal absorption, clinical effect and irritation (general statement); format: in vivo
[7] = relative, among calcitonins; cited from earlier work
[8] = powder in specific carrier, nasal route

## salmon calcitonin
[1]; 0 min (predose)
  Concentration of salmon calcitonin in the blood: ~ 7 pg/ml
[1]; 5 min
  Concentration of salmon calcitonin in the blood: 55.50 pg/mL and 14.05 pg/mL and 76.25 pg/mL
[1]; 10 min
  Concentration of salmon calcitonin in the blood: 93.05 pg/mL and 44.12 pg/mL and 107.67 pg/mL
[1]; 15 min
  Concentration of salmon calcitonin in the blood: 49.84 pg/mL and 77.03 pg/mL and 118.26 pg/mL
[1]; 20 min
  Concentration of salmon calcitonin in the blood: 65.95 pg/mL and 59.36 pg/mL and 95.07 pg/mL
[1]; 30 min
  Concentration of salmon calcitonin in the blood: 21.08 pg/mL and 47.69 pg/mL and 102.78 pg/mL
[1]; 45 min
  Concentration of salmon calcitonin in the blood: 12.54 pg/mL and 24.68 pg/mL and 60.68 pg/mL
[1]; 60 min
  Concentration of salmon calcitonin in the blood: 13.50 pg/mL and 19.43 pg/mL and 42.97 pg/mL
[1]; 90 min
  Concentration of salmon calcitonin in the blood: 7.92 pg/ml and ~ 7 pg/ml and 21.78 pg/ml
[1]; 120 min
  Concentration of salmon calcitonin in the blood: ~ 7 pg/ml and 12.75 pg/ml
[1]; 180 min
  Concentration of salmon calcitonin in the blood: ~ 7 pg/ml
[1]; nasal
  absorption into the blood: high degree of absorption
[2]
  absorption through the nasal cavity: high extent of absorption
[2]; 0 min (predose)
  Concentration of salmon calcitonin in the blood: ~ 7 pg/ml
[2]; 5 min
  Concentration of salmon calcitonin in the blood: 65.30 pg/mL and 66.02 pg/mL and 57.83 pg/mL and 72.72 pg/mL
[2]; 10 min
  Concentration of salmon calcitonin in the blood: 98.88 pg/mL and 95.22 pg/mL and 83.75 pg/mL and 130.21 pg/mL
[2]; 15 min
  Concentration of salmon calcitonin in the blood: 96.96 pg/mL and 106.69 pg/mL and 91.55 pg/mL and 139.54 pg/mL
[2]; 20 min
  Concentration of salmon calcitonin in the blood: 59.91 pg/mL and 102.60 pg/mL and 63.17 pg/mL and 122.29 pg/mL
[2]; 30 min
  Concentration of salmon calcitonin in the blood: 46.96 pg/mL and 71.13 pg/mL and 48.09 pg/mL and 91.38 pg/mL
[2]; 45 min
  Concentration of salmon calcitonin in the blood: 23.89 pg/mL and 57.42 pg/mL and 30.95 pg/mL and 45.91 pg/mL
[2]; 60 min
  Concentration of salmon calcitonin in the blood: 14.31 pg/mL and 33.21 pg/mL and 19.56 pg/mL and 15.62 pg/mL
[2]; 90 min
  Concentration of salmon calcitonin in the blood: ~ 7 pg/ml (2×) and 13.06 pg/ml and 10.39 pg/ml
[2]; 120 min
  Concentration of salmon calcitonin in the blood: ~ 7 pg/ml and 8.76 pg/ml
[2]; 180 min
  Concentration of salmon calcitonin in the blood: ~ 7 pg/ml
[2]; nasal
  time of maximum concentration: reaching maximum in a short time after administration
[3]
  absorption: high extent of absorption
[4]
  absorption: high extent of absorption
[5]; 0 min (predose)
  Concentration of salmon calcitonin in the blood: ~ 7 pg/ml
[5]; 5 min
  Concentration of salmon calcitonin in the blood: 19.75 pg/mL and 26.41 pg/mL and 32.23 pg/mL
[5]; 10 min
  Concentration of salmon calcitonin in the blood: 19.35 pg/mL and 34.82 pg/mL and 24.85 pg/mL
[5]; 15 min
  Concentration of salmon calcitonin in the blood: 14.97 pg/mL and 31.66 pg/mL and 18.68 pg/mL
[5]; 20 min
  Concentration of salmon calcitonin in the blood: ~ 7 pg/ml and 37.63 pg/ml and 12.92 pg/ml
[5]; 30 min
  Concentration of salmon calcitonin in the blood: 9.15 pg/ml and 24.79 pg/ml and ~ 7 pg/ml
[5]; 45 min
  Concentration of salmon calcitonin in the blood: ~ 8 pg/ml and 13.70 pg/ml and ~ 7 pg/ml
[5]; 60 min
  Concentration of salmon calcitonin in the blood: ~ 7 pg/ml and 12.12 pg/ml
[5]; nasal
  absorption: high extent of absorption
  concentration in the blood versus injection: simlar to that obtainable by injection
[6]; homogeneously dispersed in and adsorbed onto the carrier
  bioavailability and concentration in blood: high both in bioavailability and concentration in blood
[6]; [8]
  absorption into the body: well absorbed into the body
  clinical effects: high clinical effects
[7]
  stability: relatively low in stability
